Like-named read-outs stand apart in the source and are kept apart here.
Columns and labels:
[1] = biological target: DPP1 in HL-60 cells (Homo sapiens (Human), UniProt P53634); test: DPP1 Cell IC50 assay; assay type: cell-based; settings: H-Gly-Phe-AFC substrate, 60 min pre-incubation
Experimental: Media was changed every three to four days and cells were not allowed to exceed 1×10^6 cells per mL. Prior to assay, cells were collected by centrifugation at 500 rcf for 3 minutes, resuspended in PBS and counted. Cells were diluted in PBS to a concentration of 5×10^5 live cells per mL and transferred to black 96-well plates for assay, 60 μL per well. Test articles were diluted in PBS plus 0.5% DMSO, and 20 μL was added to each assay well. Compound was allowed to pre-incubate with cells with gentle shaking at 100 rpm for 60 minutes at 37° C. in a cell culture incubator maintained at 5% CO2, after which 20 μL of 500 μM H-Gly-Phe-AFC substrate (MP Biomedicals; Solon, OH) was added to each well. Plates were returned to the incubator with shaking at 100 rpm for 30 minutes, after which fluorescence was measured at Excitation/Emission 400/505 nm. % Inhibition was calculated from RFU values compared to control cell wells that received only PBS plus 0.5% DMSO. IC50 values for each compound were calculated via the XLFit (IDBS Version 5.3.1.3) Add-On to Microsoft Excel using the four parameter fit equation y=(A+((B-A)/(1+((C/x)^D)))), which appears as equation number 205 (4 Parameter Logistic Model or Sigmoidal Dose-Response Model) in XLFit.

[2] = biological target: human DPP1 enzyme (Homo sapiens (Human), UniProt P53634); test: Human DPP1 enzyme IC50 assay; assay type: biochemical
human DPP1 enzyme, sequence (P53634 25-134): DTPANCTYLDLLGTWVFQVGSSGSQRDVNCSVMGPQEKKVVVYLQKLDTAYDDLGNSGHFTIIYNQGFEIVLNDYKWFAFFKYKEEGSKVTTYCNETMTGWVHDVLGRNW
human DPP1 enzyme, sequence (P53634 231-394): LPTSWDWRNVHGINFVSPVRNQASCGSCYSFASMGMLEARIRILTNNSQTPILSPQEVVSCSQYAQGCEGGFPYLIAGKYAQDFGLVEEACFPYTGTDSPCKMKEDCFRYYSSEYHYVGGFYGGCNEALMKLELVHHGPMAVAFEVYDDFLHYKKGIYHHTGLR
human DPP1 enzyme, sequence (P53634 395-463): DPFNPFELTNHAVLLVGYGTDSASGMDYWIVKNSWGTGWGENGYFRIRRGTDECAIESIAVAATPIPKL
Method in brief: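 Fluorogenic readout (350/450 nm, every 5 min over 90 min, 37°C) of H-Gly-Arg-AMC cleavage at 400 μM final substrate. Compounds met activated DPP1 first for a 10-min 37°C pre-incubation in MES buffer pH 6.0 with DTT, 1% DMSO final. Four-parameter sigmoidal fit gave IC50.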

[3] = recombinant human DPP1, H-Gly-Arg-AMC substrate 400 μM

DPP1 in HL-60 cells, sequence (P53634 25-134): as the sequence (P53634 25-134) above
DPP1 in HL-60 cells, sequence (P53634 231-394): as the sequence (P53634 231-394) above
DPP1 in HL-60 cells, sequence (P53634 395-463): as the sequence (P53634 395-463) above

Structure (SMILES)	IC50 [1] [nM]	IC50 [2, 3] [nM]	IC50 [2] [nM]
CN(C)C[C@H](O)C(=O)N[C@H](C#N)Cc1ccc(-c2ccc3c(n2)CCCN3)cc1F [Compound 276, (2S)—N-[(1S)-1-cyano-2-[2-fluoro-4-(5,6,7,8-tetrahydro-1,5-naphthyridin-2-yl)phenyl]ethyl]-3-(dimethylamino)-2-hydroxypropanamide]	≥ 2.5	≥ 15	
Cn1c(=O)oc2ccc(-c3ccc(C[C@@H](C#N)NC(=O)[C@H](N)Cc4c[nH]cn4)cc3)cc21 [Compound 215, (2R)-2-amino-N-[(1S)-1-cyano-2-[4-(3-methyl-2-oxo-1,3-benzoxazol-5-yl)phenyl]ethyl]-3-(1H-imidazol-4-yl)propanamide]	≥ 2.5	≥ 15	
N#Cc1ccc(-c2ccc(C[C@H](C#N)NC(=O)C3(N)CCOCC3)c(I)c2)cc1 [Compound 249, 4-amino-N-[(1R)-1-cyano-2-{4′-cyano-3-iodo-[1,1′-biphenyl]-4-yl}ethyl]oxane-4-carboxamide]	≥ 2.5	≥ 15	
Cn1c(=O)oc2ccc(-c3ccc(C[C@@H](C#N)NC(=O)[C@H](N)[C@@H]4CCCO4)cc3)cc21 [Compound 213, (2R)-2-amino-N-[(1S)-1-cyano-2-[4-(3-methyl-2-oxo-1,3-benzoxazol-5-yl)phenyl]ethyl]-2-[(2S)-oxolan-2-yl]acetamide]	≥ 2.5	≥ 15	
Cn1c(=O)oc2ccc(-c3ccc(C[C@@H](C#N)NC(=O)C(N)Cc4ccccc4O)cc3)cc21 (stereo partly drawn) [Compound 203, 2-amino-N-[(1S)-1-cyano-2-[4-(3-methyl-2-oxo-1,3-benzoxazol-5-yl)phenyl]ethyl]-3-(2-hydroxyphenyl)propanamide]	≥ 2.5	5 to 15	
CN(C)C[C@H](O)C(=O)N[C@H](C#N)Cc1ccc(-c2ccc3c(c2)C2(CCN(C4COC4)CC2)OC3)cc1F [Compound 283, (2S)—N-[(1S)-1-cyano-2-{2-fluoro-4-[1′-(oxetan-3-yl)-3H-spiro[2-benzofuran-1,4′-piperidin]-6-yl]phenyl}ethyl]-3-(dimethylamino)-2-hydroxypropanamide]	≥ 2.5	5 to 15	
CCN1C(=O)Cc2ccc(-c3ccc(C[C@@H](C#N)NC(=O)[C@@](C)(N)C4CCCC4)cc3)cc21 [Compound 259A, (2S)-2-amino-N-[(1S)-1-cyano-2-[4-(1-ethyl-2-oxo-3H-indol-6-yl)phenyl]ethyl]-2-cyclopentylpropanamide]	1 to 2.5	≤ 5	
CN(C)C[C@H](F)C(=O)N[C@H](C#N)Cc1ccc(-c2ccc3oc(=O)n(C)c3c2)cc1F [Compound 278, (2S)—N-[(1S)-1-cyano-2-[2-fluoro-4-(3-methyl-2-oxo-1,3-benzoxazol-5-yl)phenyl]ethyl]-3-(dimethylamino)-2-fluoropropanamide]	≥ 2.5	≥ 15	
CN(C)C[C@H](O)C(=O)N[C@H](C#N)Cc1ccc(-c2ccc3c(c2)C(C2CCN(C4COC4)CC2)OC3)cc1 (stereo partly drawn) [Compound 281, (2S)—N-[(1S)-1-cyano-2-(4-{3-[1-(oxetan-3-yl)piperidin-4-yl]-1,3-dihydro-2-benzofuran-5-yl}phenyl)ethyl]-3-(dimethylamino)-2-hydroxypropanamide]	≥ 2.5	≥ 15	
CC(C(=O)N[C@H](C#N)Cc1ccc(-c2ccc3oc(=O)n(C)c3c2)cc1)C1(N)CC1 (stereo partly shown) [Compound 195]	≥ 2.5	≥ 15	
Cn1c(=O)oc2ccc(-c3ccc(C[C@@H](C#N)NC(=O)[C@@H](N)Cc4cn[nH]c4)cc3)cc21 [Compound 214, (2S)-2-amino-N-[(1S)-1-cyano-2-[4-(3-methyl-2-oxo-1,3-benzoxazol-5-yl)phenyl]ethyl]-3-(1H-pyrazol-4-yl)propanamide]	≥ 2.5	≥ 15	
Cn1c(=O)oc2ccc(-c3ccc(C[C@@H](C#N)NC(=O)C(N)Cc4cccnc4O)cc3)cc21 (stereo partly drawn) [Compound 199, 2-amino-N-[(1S)-1-cyano-2-[4-(3-methyl-2-oxo-1,3-benzoxazol-5-yl)phenyl]ethyl]-3-(2-hydroxypyridin-3-yl)propanamide]	≥ 2.5	≥ 15	
Cn1c(=O)oc2ccc(-c3ccc(C[C@@H](C#N)NC(=O)[C@@H](N)C4CCCO4)cc3)cc21 (stereo in doubt) [Compound 210, (2S)-2-amino-N-[(1S)-1-cyano-2-[4-(3-methyl-2-oxo-1,3-benzoxazol-5-yl)phenyl]ethyl]-2-[(2S)-oxolan-2-yl]acetamide]	≥ 2.5	5 to 15	
Cc1cn2cc(-c3ccc(C[C@@H](C#N)NC(=O)[C@@](C)(N)C4CCC4)c(F)c3)cc2c(C)n1 [Compound 272B, (S)-2-amino-N—((S)-1-cyano-2-(4-(1,3-dimethylpyrrolo[1,2-a]pyrazin-7-yl)-2-fluorophenyl)ethyl)-2-cyclobutylpropanamide]	1 to 2.5	5 to 15	
Cn1c(=O)oc2ccc(-c3ccc(C[C@@H](C#N)NC(=O)C4(N)CCCC45CC5)cc3)cc21 (stereo partly drawn) [Compound 222, 4-amino-N-[(1S)-1-cyano-2-[4-(3-methyl-2-oxo-1,3-benzoxazol-5-yl)phenyl]ethyl]spiro[2.4]heptane-4-carboxamide]	1 to 2.5	≤ 5	
Cn1c(=O)oc2ccc(-c3ccc(C[C@@H](C#N)NC(=O)C(N)Cc4cocn4)cc3)cc21 (stereo partly drawn) [Compound 204, 2-amino-N-[(1S)-1-cyano-2-[4-(3-methyl-2-oxo-1,3-benzoxazol-5-yl)phenyl]ethyl]-3-(1,3-oxazol-4-yl)propanamide]	1 to 2.5	≤ 5	
CCN1C(=O)Cc2ccc(-c3ccc(C[C@@H](C#N)NC(=O)[C@@](C)(N)C4CCCC4)c(F)c3)cc21 [Compound 264A, (2S)-2-amino-N-[(1S)-1-cyano-2-[4-(1-ethyl-2-oxo-3H-indol-6-yl)-2-fluorophenyl]ethyl]-2-cyclopentylpropanamide]	≥ 2.5	≥ 15	
CN(C)CCn1c(=O)oc2ccc(-c3ccc(C[C@@H](C#N)NC(=O)C(C)(N)C4CCC4)c(F)c3)cc21 (stereo partly drawn) [Compound 268, 2-amino-N-[(1S)-1-cyano-2-(4-{3-[2-(dimethylamino)ethyl]-2-oxo-1,3-benzoxazol-5-yl}-2-fluorophenyl)ethyl]-2-cyclobutylpropanamide]	1 to 2.5	≤ 5	
CN(C)C[C@H](O)C(=O)N[C@H](C#N)Cc1ccc(-c2ccc3cnn(C4CCN(C5COC5)CC4)c3c2)cc1 [Compound 282, (2S)—N-[(1S)-1-cyano-2-(4-{1-[1-(oxetan-3-yl)piperidin-4-yl]indazol-6-yl}phenyl)ethyl]-3-(dimethylamino)-2-hydroxypropanamide]	≥ 2.5	≥ 15	
Cn1c(=O)oc2ccc(-c3ccc(C[C@@H](C#N)NC(=O)C(C)(N)C4CCC4)cc3)cc21 (stereo partly drawn) [Compound 220, 2-amino-N-[(1S)-1-cyano-2-[4-(3-methyl-2-oxo-1,3-benzoxazol-5-yl)phenyl]ethyl]-2-cyclobutylpropanamide]	1 to 2.5	≤ 5	
Cn1c(=O)oc2ccc(-c3ccc(C[C@@H](C#N)NC(=O)C(N)Cc4cncs4)cc3)cc21 (stereo partly drawn) [Compound 201, 2-amino-N-[(1S)-1-cyano-2-[4-(3-methyl-2-oxo-1,3-benzoxazol-5-yl)phenyl]ethyl]-3-(1,3-thiazol-5-yl)propanamide]	≥ 2.5	≥ 15	
Cn1c(=O)oc2ccc(-c3ccc(C[C@@H](C#N)NC(=O)C(N)Cc4cc[nH]c4)cc3)cc21 (stereo partly drawn) [Compound 208, 2-amino-N-[(1S)-1-cyano-2-[4-(3-methyl-2-oxo-1,3-benzoxazol-5-yl)phenyl]ethyl]-3-(1H-pyrrol-3-yl)propanamide]	≥ 2.5		< 5
C[C@@H](N)[C@@H](O)C(=O)N[C@H](C#N)Cc1ccc(-c2ccc3oc(=O)n(C)c3c2)cc1 [Compound 102B]	≥ 2.5	≥ 15	
Cn1c(=O)oc2ccc(-c3ccc(C[C@@H](C#N)NC(=O)C4(N)CCCC45CC5)c(F)c3)cc21 (stereo partly drawn) [Compound 273B, (4R)-4-amino-N-[(1S)-1-cyano-2-[2-fluoro-4-(3-methyl-2-oxo-1,3-benzoxazol-5-yl)phenyl]ethyl]spiro[2.4]heptane-4-carboxamide]	≤ 1	≤ 5	
CNC[C@H](OC)C(=O)N[C@H](C#N)Cc1ccc(-c2ccc3oc(=O)n(C)c3c2)cc1 [Compound 109, (S)—N—((S)-1-cyano-2-(4-(3-methyl-2-oxo-2,3-dihydrobenzo[d]oxazol-5-yl)phenyl)ethyl)-2-methoxy-3-(methylamino)propanamide]	≥ 2.5	≥ 15	
COCCN(C)CCn1c(=O)oc2ccc(-c3ccc(C[C@@H](C#N)NC(=O)[C@@](C)(N)C4CCCC4)cc3)cc21 [Compound 258A, (2S)-2-amino-N-[(1S)-1-cyano-2-[4-(3-{2-[(2-methoxyethyl)(methyl)amino]ethyl}-2-oxo-1,3-benzoxazol-5-yl)phenyl]ethyl]-2-cyclopentylpropanamide]	≥ 2.5	≥ 15	
